Results: US10092596B2, “Tungstate treatment of the dysbiosis associated with gastrointestinal inflammation” (THE REGENTS OF THE UNIVERSITY OF CALIFORNIA, priority 2013, dated 2018)
Where two headings read alike, the source gives them in different places.

What was measured:
[1] = tested on: E. coli Nissle 1917 and narG napA narZ mutant; assay: Competitive infection of DSS-treated mice with E. coli Nissle 1917 and its nitrate respiration-deficient mutant; format: in vivo; settings: AG in drinking water, five days after infection
Experimental: Mice were mock-treated or treated with dextran sulfate sodium (DSS) or DSS+aminoguanidine (AG) and infected with equal mixtures of the indicated E. coli strains. Five days after infection, the ratio of wild-type (wt) and mutant recovered from colon contents was determined (competitive index). Bars represent geometric means±standard error.
Next, mock-treated mice (C57BL/6) or mice with DSS-induced colitis were inoculated with an equal mixture of E. coli Nissle 1917 and its isogenic nitrate respiration-deficient mutant (competitive infection design). Wild type and nitrate respiration-deficient mutant strains colonized the intestine of normal mice poorly, but similar numbers of each strain were recovered from colon contents (FIG. 2). […] Thus, nitrate respiration enhanced the fitness of E. coli in the inflamed gut.
(§1) Since the fitness advantage conferred by nitrate respiration was abrogated in Nos2-deficent mice (FIG. 2), the ability of inhibiting nitrate respiration in vivo was tested by supplementing the drinking water of mice with the iNOS inhibitor aminoguanidine (AG).

[2] = Inflammation and morbidity in DSS-treated mice infected with LF82; format: in vivo, mice (C57BL/6); settings: AG or tungstate in water, NAC in chow
Experimental: The development of intestinal inflammation can be followed as described below. The severity of inflammatory changes in the cecum and the colon are assessed by several independent approaches at three, five and seven days after inoculation. First, the relative transcript levels of genes encoding neutrophil chemoattractants (i.e., genes encoding the CXC-chemokines Kc and the Mip2) and iNOS (Nos2) are determined (see, e.g., 62, 64). Second, to monitor, on the protein level, how inflammatory markers increase after DSS treatment, expression levels of iNOS and myeloperoxidase (MPO) are analyzed in protein samples extracted from the colonic mucosa by Western blot using anti-iNOS antibodies (Abcam), anti-MPO antibodies (R&D systems), and anti-tubulin as a loading control (64). Third, concentrations of the neutrophil-specific enzyme MPO in fecal pellets are measured by ELISA. This can serve as an indicator for the degree of neutrophil transmigration into the intestinal lumen over time (6, 42). Finally, pathological changes in the colonic mucosa are assessed through standardized, blinded scoring of formalin-fixed, hematoxylin and eosin-stained sections by a veterinary pathologist (64).

nitrate/nitrite = assay: Nitrate/nitrite concentration in the cecal mucus of DSS-treated mice; format: in vivo; settings: AG in drinking water
Excerpt: Bars represent geometric means±standard error. *, P<0.05; **, P<0.01.
To determine whether the availability of nitrate increases during DSS colitis, the concentration of nitrate/nitrite in the colonic mucus of mock-treated and DSS-treated mice was examined. […] The results supported the idea that the inflammatory host response generates respiratory electron acceptors in the large bowel.
as §1

neutrophils [3] = settings: in vivo; cited from earlier work
neutrophils [4] = settings: in vitro; cited from earlier work
[5] = tested on: E. coli Nissle 1917 wild-type and moaA mutant; assay: DSS colitis model, colonization with E. coli indicator strains (wild-type and moaA mutant, 1:1); format: in vivo
Excerpt: (§2) To determine whether the administration of soluble tungsten (W) salts can abolish anaerobic respiration and thus blunt the bloom of Enterobacteriaceae in vivo, a murine model of chemically-induced colitis, the dextran sulfate sodium (DSS) colitis model, was employed. Oral administration of DSS in the drinking water induces a vigorous intestinal inflammatory response that is accompanied by a bloom of commensal Enterobacteriaceae (3). Groups of C57BL/6 mice received DSS-supplemented (2 or 3%) drinking water or received DSS-supplemented (2 or 3%) drinking water with sodium tungstate (0.2%) added. After onset of inflammation (4 days after start of the treatment), mice were intragastrically inoculated with a 1:1 mixture of the E. coli Nissle 1917 wild-type and an isogenic moaA mutant deficient for molybdopterin cofactor biosynthesis. Utilization of these non-pathogenic indicator strains allows a determination of the growth advantage conferred through anaerobic respiration by comparing colonization with the wild-type strain with an anaerobic respiration-deficient mutant (moaA mutant) (3). 5 days after inoculation of mice, animals were euthanized and colonization with the E. coli indicator strains determined by cultivation on selective media (each of the strains is marked with a different antibiotic resistance gene) (FIG. 10).
To further test the efficacy of tungstate treatment, E. coli indicator strains that were either proficient for anaerobic respiration (E. coli Nissle 1917 wild-type) or deficient for nitrate respiration, DMSO respiration, and TMAO respiration due to a mutation in one of the molybdopterin cofactor biosynthesis genes (E. coli Nissle 1917 moaA mutant) were used. Groups of mice with DSS-induced colitis were inoculated with an equal mixture of both E. coli indicator strains (i.e., wild-type and moaA mutant) and received either regular water (vehicle control) or drinking water containing 2 g/l sodium tungstate (Na2WO4×2H2O; Sigma-Aldrich, St. Louis, Mo., USA) to receive a calculated average dose of 130 mg/kg/day (assuming 2.6 ml of water intake per day for each animal). These experiments determined whether anaerobic respiration would provide a fitness advantage upon the E. coli wild-type over the moaA mutant in the inflamed intestine of DSS-treated mice. Furthermore, if tungstate treatment would inhibit anaerobic respiration, these experiments determined whether this fitness advantage would be eliminated and both strains would be recovered at a 1:1 ratio. In other words, the use of E. coli indicator strains as described herein enabled the determination of whether tungstate treatment would block growth by anaerobic respiration in vivo.

Tnfa = Tnfa transcript levels in the cecal mucosa of DSS-treated mice (real-time PCR); format: in vivo; settings: conventional mice, 4% DSS for 9 days
Excerpt: (§3) (13A-C) Conventional mice received 4% DSS alone (DSS) or in combination with sodium tungstate (DSS+Na2WO4) for 9 days. (13D) Germ-free mice received 1% DSS or 1% DSS+Na2WO4 for five days. (13A) Average histopathology score from the cecum.
(§4) This reduction was remarkable, because DSS treatment induces cecal inflammation by a mechanism that is only partially dependent on the presence of microbiota (10). In other words, DSS treatment causes inflammation in germ-free mice, but inflammation is exacerbated by the presence of microbiota. Thus, by inhibiting the microbiota-dependent component of inflammation, one can only expect to achieve a reduction in inflammation, but not a resolution of inflammation. Thus, given the marked pathology observed in DSS-treated germ-free mice (10), the reduction of cecal pathology after tungsten treatment was remarkable.

AIEC strain LF82 = settings: DSS-treated mice infected with LF82, tungstate in water
Experimental: Groups of 6 DSS-treated mice (C57BL/6) were provided with water or water supplemented with AG or tungstate and fed regular chow or chow supplemented with NAC. Mice were then inoculated with wild-type LF82 or sterile medium (mock-infection) and organs were collected at three, five and seven days after infection.
In addition, colony forming units (CFU) of E. coli are determined by spreading homogenates of colon contents on plates containing the appropriate antibiotics (all LF82 derivatives are marked with a kanamycin resistance cassette inserted downstream of the lac operon).

[6] = Histopathology score of the cecum in DSS-treated conventional mice; format: in vivo; settings: 4% DSS for 9 days, blinded scoring
Excerpt: as §3, §4

Kc [7] = assay: Kc transcript levels in the cecal mucosa of DSS-treated conventional mice (real-time PCR); format: in vivo; settings: 4% DSS for 9 days
Excerpt: as §3, §4

[8] = tested on: facultative anaerobic bacteria; assay: Microbial community profiling in mouse colitis models (16S rRNA gene sequences); format: in vivo; settings: mice with severe colitis (DSS or oxazolone) treated with tungstate
Excerpt: To investigate whether changes in the microbial communities that develop during inflammation are due to anaerobic respiration, the temporal dynamics of the entire gut community can be monitored in mouse models of colitis. In particular, colitis can be induced by DSS treatment or hapten-induced (oxazolone-treatment) in wild type and Nos2-deficient mice, including those that are additionally exposed to tungstate, AG, or NAC. The experiments can be performed as follows.
Wild type mice (C57BL/6) and Nos2-deficient mice are co-housed for two weeks to reduce the variation in the microbial community structure prior to inducing inflammation. Feces are collected from all animals for DNA isolation to establish a baseline of the microbiota composition at the beginning of the experiment. Six mice from each mouse strain (C57BL/6 mice or Nos2-deficient mice) are euthanized to isolate bacterial DNA from cecal and colon contents and to establish a baseline for inflammatory host responses using the methods described above (see, Section 5). Groups of mice from each mouse strain (e.g., C57BL/6 mice or Nos2-deficient mice) are treated with 4% DSS in drinking water or are “mock-treated” (i.e., mice will receive drinking water without DSS). […]
The development of intestinal inflammation is monitored using methods described above (see, Section 5). […]

[9] = oral, 100 mg twice a day for 6 weeks, cited from earlier work
nitrate reductase = assay: Nitrate reductase activity in E. coli Nissle 1917 cultures (modified Griess assay); format: cell-based; settings: LB broth with 40 mM nitrate, microaerobic, 3 h at 37° C.; versus mock-treated cultures
Excerpt: In E. coli, the respiratory reductases for nitrate, DMSO and TMAO as well as the formate dehydrogenases FdnG and FdoG contain molybdenum (Mo) as a key catalyst for electron transfer reactions (7). The functions of FdnG and FdoG are linked to respiration, because these two formate dehydrogenases couple respiratory electron acceptors to the electron donor formate, a fermentation end product present in the large intestine. Formate dehydrogenases and respiratory reductases contain Mo within a molybdopterin cofactor. Tungsten (W) has chemical properties similar, but not identical, to Mo. […] To test whether the addition of W (as the soluble sodium salt Na2WO4; sodium tungstate) to bacterial growth media can inhibit anaerobic nitrate respiration, aliquots of LB broth supplemented with 40 mM nitrate and varying concentrations of tungstate were inoculated with the E. coli Nissle 1917 wild-type strain and incubated under microaerobic conditions for 3 h at 37° C. (3). Nitrate reductase activity was assayed using a modified Griess assay (9) (FIG. 9).

[10] = Body weight in the DSS-colitis model; format: in vivo, C57BL/6 mice; settings: 3% DSS, tungstate 0.2% in drinking water, after 8 days of DSS treatment
Excerpt: as §2, with “10). […]” for “10).”

Kc [11] = assay: Kc transcript levels in the cecal mucosa of DSS-treated germ-free mice; format: in vivo; settings: 1% DSS, 5 days after the beginning of DSS treatment
Experimental: as §3
The key experiment to distinguish between these two possibilities is to test whether tungstate treatment reduces inflammation in germ-free mice. To this end, groups of four germ-free mice were treated with 1% DSS, 1% DSS+sodium tungstate, or drinking water without supplementation.

[12] = sodium tungstate 0.2% in drinking water, DSS 2 or 3%, 5 days after inoculation

| Structure (SMILES) | fitness advantage conferred by nitrate respiration (competitive index) [1] | inflammation and morbidity [2] | availability of nitrate/nitrite in the large bowel (nitrate/nitrite) | oxidative burst activity of neutrophils (neutrophils [3]) | concentration that almost completely inhibits the oxidative response of neutrophils to E. coli (neutrophils [4]) [mM] | absolute numbers of E. coli recovered from colon contents (bloom) ([5]; DSS+Na2WO4 versus DSS alone, FIG. 12B) | competitive index (ratio of wild-type to moaA mutant) recovered from colon contents ([5]; DSS-induced colitis, drinking water with 2 g/l sodium tungstate (130 mg/kg/day)) | recovery of wild-type versus moaA mutant from colon content [5, 12] | total number of E. coli indicator strains recovered from colon content [5, 12] | transcript levels of Tnfa in the cecal mucosa (Tnfa) | growth of AIEC by anaerobic respiration (AIEC strain LF82) | overall pathology score of the cecal mucosa [6] | induction of Kc in the cecal mucosa (Kc [7]) | increased abundance of facultative anaerobic bacteria associated with inflammation [8] | body weight ([9]; human obesity) | safety parameters ([9]; human) | tungstate concentration at which nitrate reductase activity was significantly reduced (nitrate reductase) | body weight [10] | levels of pro-inflammatory cytokines (Kc transcript) (Kc [11]) |
| --- | --- | --- | --- | --- | --- | --- | --- | --- | --- | --- | --- | --- | --- | --- | --- | --- | --- | --- | --- |
| N=C(N)NN [AG, aminoguanidine] | abrogated the fitness advantage | intermediate effect | markedly reduced |  |  |  |  |  |  |  |  |  |  |  |  |  |  |  |  |
| CC(=O)N[C@@H](CS)C(=O)O [NAC, N-acetylcysteine] |  | intermediate effect |  | suppress the oxidative burst activity | 76 |  |  |  |  |  |  |  |  |  |  |  |  |  |  |
| [Na+].[Na+].[O]=[W](=[O])([O-])[O-] [sodium tungstate] |  | reducing inflammation and morbidity |  |  |  | prevented facultative anaerobic bacteria from blooming | both strains were recovered in equal numbers | both strains were recovered at similar numbers | significantly diminished | blunting of transcript levels | reduction in the growth of AIEC | significant (P<0.05) reduction | abrogated induction | not observed | did not reduce body weight | not associated with abnormal safety parameters | exceeding 10 ng/ml | > 90 % of starting weight | did not reduce |
